Like-named read-outs stand apart in the source and are kept apart here.
What was measured:
[1] = system: S. aureus MRSA (ATCC 43300); experiment: CO-ADD antibacterial assay, growth inhibition (OD600); assay type: cell-based, Staphylococcus aureus
Description: (§1) Dry compounds ranging from 1–2 mg were weighed into properly labeled Eppendorf tubes and sealed with parafilm. The compounds were used as received by the CO-ADD. For the screenings, most compounds were dissolved to a stock concentration of 10 mg/mL in DMSO. K2[Ti(Citrate)3], Na3Citrate, and K2[TiO(Oxalate)2] were dissolved in warm water. […] Samples were diluted in water to a final testing concentration of 32 µg/mL while keeping the final co-solvent concentration to a maximum of 0.5%. Where applicable, compounds were serially diluted 1:2 fold eight times. Each sample concentration was prepared in 384-well plates, non-binding surface plate (NBS; Corning 3640) for each bacterial/fungal strain, tissue-culture treated (TC-treated; Corning 3712/3764), black for mammalian cell types and polypropylene 384-well (PP; Corning 3657) for hemolysis assays, all in duplicate (n = 2), and keeping the final DMSO concentration to a maximum of 0.5%. All sample preparation was conducted using liquid handling robots.
(§2) For the bacterial assays, four Gram-negative bacteria (E. coli (ATCC 25922, Manassas, VA, USA); K. pneumoniae (ATCC 700603), A. baumannii; (ATCC 19606), and P. aeruginosa (ATCC 27853) and the Gram-positive bacteria (S. aureus MRSA (ATCC 43300) were used. Each strain was cultured in cation-adjusted Mueller Hinton broth (CAMHB; Bacto Laboratories 212322, Mount Pritchard, Australia) at 37 °C overnight. A sample of each culture was then diluted 40-fold in fresh CAMHB and incubated at 37 °C for 1.5–3 h. The resultant mid-log phase cultures were diluted with CAMHB (CFU/mL measured by OD600), then added to each well of the compound-containing plates (384-well non-binding surface (NBS) plates; Corning CLS3640, Millipore Sigma, Burlington, MA, USA), giving a cell density of 5 × 10^5 CFU/mL and a total volume of 50 µL. Plates were covered and incubated at 37 °C for 18 h without shaking. Inhibition of bacterial growth was determined by measuring absorbance at 600 nm (OD600) with a Tecan M1000 Pro monochromator plate reader, using media-only as negative control and bacteria without inhibitors as a positive control. […] Colistin sulfate (Sigma C4461) and vancomycin HCl (Sigma 861987) were used as internal controls on each plate for Gram-negative and Gram-positive bacteria, respectively.

[2] = system: A. baumannii (ATCC 19606); experiment: as above; assay type: cell-based, Acinetobacter baumannii; settings: up to 32 μg/mL
Description: as §1, §2

E. coli (ATCC 25922) = experiment: as above; assay type: cell-based, Escherichia coli; settings: up to 32 μg/mL
Description: as §1, §2

[3] = system: K. pneumoniae (ATCC 700603); experiment: as above; assay type: cell-based, Klebsiella pneumoniae; settings: up to 32 μg/mL
Description: as §1, §2

[4] = system: P. aeruginosa (ATCC 27853); experiment: as above; assay type: cell-based, Pseudomonas aeruginosa; settings: up to 32 μg/mL
Description: as §1, §2

C. albicans (ATCC 90028) = experiment: CO-ADD antifungal assay, growth inhibition (OD630); assay type: cell-based, Candida albicans; settings: up to 32 μg/mL
Description: (§3) The compounds were used as received by the CO-ADD. For the screenings, most compounds were dissolved to a stock concentration of 10 mg/mL in DMSO. K2[Ti(Citrate)3], Na3Citrate, and K2[TiO(Oxalate)2] were dissolved in warm water. [Cu(Deferasirox)(H2O)]2 was dissolved in pyridine after its solubility was determined to be excellent in pyridine due to coordination of the solvent to the metal producing [Cu(Deferasirox)(pyridine)]2 in situ. […] Each sample concentration was prepared in 384-well plates, non-binding surface plate (NBS; Corning 3640) for each bacterial/fungal strain, tissue-culture treated (TC-treated; Corning 3712/3764), black for mammalian cell types and polypropylene 384-well (PP; […] All sample preparation was conducted using liquid handling robots. For the fungal assays, the fungi (C. albicans (ATCC 90028) and C. neoformans) (ATCC 208821) were used. Both fungi (yeast) strains were cultured for 3 days on Yeast Extract-Peptone Dextrose (YPD; Becton Dickinson 242720, Thermo Fisher Scientific, Waltham, MA, USA) agar at 30 °C. A yeast suspension of 1 × 10^6 to 5 × 10^6 CFU/mL (as determined by OD530) was prepared from five colonies from the agar plates, subsequently diluted with Yeast Nitrogen Base media (YNB; Becton Dickinson 233520, Thermo Fisher Scientific, Waltham, MA, USA), and added to each well of the compound-containing plates (384-well plates, NBS; Corning CLS3640) giving a final cell density of 2.5 × 10^3 CFU/mL and a total volume of 50 μL. Plates were covered and incubated at 35 °C for 36 h without shaking. […] Sigma R7017) and incubation at 35 °C for 2 h, using media-only as a negative control and fungi without inhibitors as a positive control. […] Fluconazole (Sigma F8929) was used as an internal control on each plate for both strains.

[5] = system: C. neoformans (ATCC 208821); experiment: CO-ADD antifungal assay, growth inhibition (resazurin, OD600-570); assay type: cell-based, Cryptococcus neoformans; settings: up to 32 μg/mL
Description: as §3

[6] = system: HEK293 ATCC CRL-1573 human embryonic kidney cells; experiment: CO-ADD cytotoxicity assay (resazurin); assay type: cell-based; settings: all concentrations examined (0.25-32 μg/mL), 20 h; CC50 could not be measured
Description: The compounds were used as received by the CO-ADD. For the screenings, most compounds were dissolved to a stock concentration of 10 mg/mL in DMSO. K2[Ti(Citrate)3], Na3Citrate, and K2[TiO(Oxalate)2] were dissolved in warm water. [Cu(Deferasirox)(H2O)]2 was dissolved in pyridine after its solubility was determined to be excellent in pyridine due to coordination of the solvent to the metal producing [Cu(Deferasirox)(pyridine)]2 in situ. […] Each sample concentration was prepared in 384-well plates, non-binding surface plate (NBS; Corning 3640) for each bacterial/fungal strain, tissue-culture treated (TC-treated; Corning 3712/3764), black for mammalian cell types and polypropylene 384-well (PP; […] All sample preparation was conducted using liquid handling robots. HEK293 ATCC CRL-1573 human embryonic kidney cells were counted manually in a Neubauer hemocytometer and added to compound-containing plates (384-well plates, tissue culture-treated (TC); […] Life Technologies 11995-073) with 10% FBS (GE SH30084.03).

MRC-5 cells [7] = settings: cited from earlier work
MRC-5 cells [8] = experiment: MRC-5 cell viability, dose-response treatment, MTT assay; assay type: cell-based, human; settings: MRC-5 cells, MTT, 72 h, pH 7.4, n = 6, this work
Description: A thawed stock of MRC-5 cells was washed with 1X PBS and resuspended in phenol red DMEM media (supplemented with 10% FBS and 1% of penicillin-streptomycin) and then seeded in a 100 mm × 20 mm (complete, O.D. x H) petri dish and grown in a 5% (v/v) CO2 humidified atmosphere at 37 °C. At least three passages were performed to ensure the integrity of the cells. After this point, cells were collected, thoroughly washed with 1X PBS, and then resuspended in phenol red-free DMEM (supplemented with 10% FBS, 1% Streptomycin/Penicillin, and 2.4 mM L-glutamine) at a 2.0 × 10^5 cells/mL concentration. Approximately 100 µL of the cell solution was seeded into wells of several 96-well plates to begin the MTT assay, which was performed in the 5% (v/v) CO2 humidified atmosphere at 37 °C. At least one lane of wells in each plate was supplied media without cells as a control. […] Most of the compounds were dissolved in 1X PBS buffer at pH 7.4. […] Titanocene dichloride was prepared as a fresh stock solution in DMSO and then diluted in 0.1 M NaCl (aq) instead of 1X PBS (to minimize hydrolysis induced precipitation) to the desired concentration while maintaining a constant 1% (v/v) DMSO background (0.5% DMSO after mixing with the well media). A control of cells treated with media containing 1% (v/v) DMSO was included in the study. The titanocene solutions were used within an hour of preparation in the final cell solution. […] At 3 h before a total of 72 h of incubation with the compounds, the cells were treated with 25 µL of 9 mg/mL MTT prepared in 1X PBS and sterile-filtered. Upon completion of the three hours, 50 µL of 10% (w/v) SDS (prepared in 0.1 M Tris buffer at pH 11) was added to solubilize the purple formazan product crystals and left overnight in the incubator. Control wells in the plates consisted of: (1) Untreated cells + MTT as the measure of 100% viable cell growth in the media and (2) Media with no cells + MTT as the measure of zero cells in the media. Two sets of compounds could be tested per plate. The plates were read at the wavelength of 570 nm (absorbance of the formazan product at pH 10.0) and 800 nm (background control) using a Tecan plate reader. The absorbance of all wells was compared to the absorbance of the untreated cells with the MTT set as the 100% viable cell standard and the absorbance of the zero cell control set as the 0% viable cell standard. […] Nonlinear regression in Origin 8.5 was utilized to fit the growth curves using the pharmacology dose–response equation to determine the half-maximal inhibitory concentration (IC50) and the corresponding standard deviation. All samples were tested six times.

[9] = predicted or measured MIC, lowest concentration with ≥75% growth inhibition, 0.25-32 μg/mL, 18 h
[10] = predicted or measured MIC, ≥75% growth inhibition
[11] = predicted or measured MIC, ≥75% growth inhibition, 36 h

| Molecule | MIC S. aureus (MRSA) [1, 9] [µg/mL] | Dmax S. aureus (MRSA), maximum % inhibition ([1]; up to 32 μg/mL) [%] | MIC A. baumannii [2, 10] [µg/mL] | Dmax A. baumannii, maximum % inhibition [2] [%] | MIC E. coli (E. coli (ATCC 25922); [10]) [µg/mL] | Dmax E. coli, maximum % inhibition (E. coli (ATCC 25922)) [%] | MIC K. pneumoniae [3, 10] [µg/mL] | Dmax K. pneumoniae, maximum % inhibition [3] [%] | MIC P. aeruginosa [4, 10] [µg/mL] | Dmax P. aeruginosa, maximum % inhibition [4] [%] | MIC C. albicans (C. albicans (ATCC 90028); [11]) [µg/mL] | Dmax C. albicans, maximum % inhibition (C. albicans (ATCC 90028)) [%] | MIC C. neoformans [5, 11] [µg/mL] | Dmax C. neoformans, maximum % inhibition [5] [%] | also measured |
| --- | --- | --- | --- | --- | --- | --- | --- | --- | --- | --- | --- | --- | --- | --- | --- |
| 4-[(3Z,5E)-3,5-Bis(6-oxocyclohexa-2,4-dien-1-ylidene)-1,2,4-triazolidin-1-yl] benzoic acid [Compound 4, reference compound] | >32 | 44.31 | >32 | 18.95 | >32 | 7.72 | >32 | 20.2 | >32 | 5.82 | >32 | 4.31 | >32 | −25.58 | antiproliferative effect against HEK293 (in words) [6]: inactive; IC50 ± SD (µM) (MRC-5 cells [7]): Proliferative Behavior; increase in the proliferation of MRC-5 cells (MRC-5 cells [7]): nearly three-fold increase |
| Oc1ccccc1-c1n[nH]c(-c2ccccc2O)n1 [Compound 3, 2-[3-(2-Hydroxyphenyl)-1H-1,2,4-triazol-5-yl]phenol, reference compound] |  |  |  |  |  |  |  |  |  |  |  |  |  |  | activity against MRSA (in words) ([1]; CO-ADD screen, 32 μg/mL): inactive; MIC ([1]; Staphylococcus aureus, predicted or measured MIC, lowest concentration with ≥75% growth inhibition, 0.25-32 μg/mL, 18 h): > 32 µg/mL; Dmax ([1]; Staphylococcus aureus, up to 32 μg/mL, read-out: Dmax S. aureus (MRSA), maximum % inhibition): -2.34%; MIC ([2]; Acinetobacter baumannii, ATCC19606, predicted or measured MIC, ≥75% growth inhibition): > 32 µg/mL; Dmax ([2]; Acinetobacter baumannii, ATCC19606, read-out: Dmax A. baumannii, maximum % inhibition): -1.93%; MIC (E. coli (ATCC 25922); Escherichia coli, ATCC25922, predicted or measured MIC, ≥75% growth inhibition): > 32 µg/mL; Dmax (E. coli (ATCC 25922); Escherichia coli, ATCC25922, read-out: Dmax E. coli, maximum % inhibition): -9.07%; MIC ([3]; Klebsiella pneumoniae, ATCC700603, predicted or measured MIC, ≥75% growth inhibition): > 32 µg/mL; Dmax ([3]; Klebsiella pneumoniae, ATCC700603, read-out: Dmax K. pneumoniae, maximum % inhibition): 4.11%; MIC ([4]; Pseudomonas aeruginosa, ATCC27853, predicted or measured MIC, ≥75% growth inhibition): > 32 µg/mL; Dmax ([4]; Pseudomonas aeruginosa, ATCC27853, read-out: Dmax P. aeruginosa, maximum % inhibition): 10%; MIC (C. albicans (ATCC 90028); Candida albicans, ATCC90028, predicted or measured MIC, ≥75% growth inhibition, 36 h): > 32 µg/mL; Dmax (C. albicans (ATCC 90028); Candida albicans, ATCC90028, read-out: Dmax C. albicans, maximum % inhibition): 6.23%; MIC ([5]; Cryptococcus neoformans, ATCC208821, predicted or measured MIC, ≥75% growth inhibition, 36 h): > 32 µg/mL; Dmax ([5]; Cryptococcus neoformans, ATCC208821, read-out: Dmax C. neoformans, maximum % inhibition): -7.23%; IC50 ± SD (µg/mL) (MRC-5 cells [7]): >>25.3 µg/mL; IC50 (MRC-5 cells [7]; read-out: IC50 ± SD): > 100 µM |
| K2[Ti(Citrate)3] [Compound 7] | >32 | 38.01 | >32 | 17.94 | >32 | 10.41 | >32 | 15.43 | >32 | 7.99 | >32 | 44.53 | >32 | −7.88 | IC50 ± SD (µg/mL) (MRC-5 cells [8]): >>73.2 µg/mL; IC50 (MRC-5 cells [8]; read-out: IC50 ± SD): > 100 µM |

— article PMC8868518, “Exploring Titanium(IV) Complexes as Potential Antimicrobial Compounds” (Antibiotics, 2022)
